According to patent US11241480B2, “Methods for modulation of dietary and microbial exposure with compositions comprising an EGFR ligand” (Washington University, priority 2017, dated 2022):

Test system: colonic LP Tregs (FoxP3+)
Assay: Colonic LP Treg/iTreg populations by flow cytometry after early-life manipulation
Format: in vivo, mice
Procedure: EGFRi treatment: Mice were injected with 500 μg/kg tyrphostin AG1478 (an inhibitor of EGFR phosphorylation) in the neonatal, post-neonatal, or weaned phase on DOLs noted in the text or figure legends.
Isolation of cellular populations and flow cytometry: Sls or colons were harvested, rinsed with PBS, and Peyer's patches or colonic patches were removed. Epithelial cellular populations were released by incubating for 15 min three times in a 37° C. rotating incubator in HBSS media (BioWhittaker, Walkersville, Md.) containing 5 mM EDTA, and splenic and LP cellular populations were isolated as described. SI and colonic APCs were identified as 7AAD^−, CD45^+, CD11c^+, MHCII^+ for flow cytometric sorting. FoxP3 subpopulations were identified as 7AAD^−, CD45^+, CD3^+, CD4^+, FoxP3^+, and either RORγt^+ or Helios^+. For intracellular antigens and cytokines, cells were fixed, permeabilized overnight, and stained per the manufacturers recommendations (eBioscience). Flow cytometry was performed with a FACScan cytometer (BD Biosciences, San Jose, Calif.) retrofitted with additional lasers. Data acquisition was performed using CellQuest (BD Biosciences) and Rainbow (Cytek, Fremont, Calif.) or FlowJo software (Tree Star, Ashland, Oreg.). Data analysis was performed on a Macintosh computer running FlowJo software.

For `COc1cc2ncnc(Nc3cccc(Cl)c3)c2cc1OC` [EGFRi, tyrphostin AG1478], the “colonic LP Treg population, pattern and timing” value (“colonic LP Treg population” below) (EGFRi in neonatal phase, DOL 6 and 8) was “early peaks in colonic LP Tregs; these peaks rapidly decreased and were not maintained”, the “colonic LP Treg population” value (EGFRi in post-neonatal phase, DOL 14 and 16) was “resembled the endogenous Treg population of non-manipulated animals” and the “colonic LP Treg population” value (EGFRi on DOL 24 and 26 (beyond weaning)) was “rapidly lost the colonic Treg population”. For the same compound, the “persistence of the diminished iTreg population” value (after manipulation of colonic GAPs (EGFRi neonatal or weaning phase)) was “at least 8 months”.
